Measurements taken from paper PMC6442233, “SAR and molecular mechanism studies of monoamine oxidase inhibition by selected chalcone analogs” (Journal of Enzyme Inhibition and Medicinal Chemistry, 2019).

How the values were obtained:
human MAO-B [1] = biological target: T1, human MAO-B (Homo sapiens, UniProt P27338); assay: IC50 determination for MAO-B inhibition (kynuramine, fluorescence); type: biochemical; details: for Selectivity index: SI = IC50(MAO-A)/IC50(MAO-B); for IC50: recombinant hMAO-B, kynuramine 50 μM, mean ± SD (triplicate)
T1 construct: purchased Sigma-Aldrich
T1 sequence (P27338 1-520): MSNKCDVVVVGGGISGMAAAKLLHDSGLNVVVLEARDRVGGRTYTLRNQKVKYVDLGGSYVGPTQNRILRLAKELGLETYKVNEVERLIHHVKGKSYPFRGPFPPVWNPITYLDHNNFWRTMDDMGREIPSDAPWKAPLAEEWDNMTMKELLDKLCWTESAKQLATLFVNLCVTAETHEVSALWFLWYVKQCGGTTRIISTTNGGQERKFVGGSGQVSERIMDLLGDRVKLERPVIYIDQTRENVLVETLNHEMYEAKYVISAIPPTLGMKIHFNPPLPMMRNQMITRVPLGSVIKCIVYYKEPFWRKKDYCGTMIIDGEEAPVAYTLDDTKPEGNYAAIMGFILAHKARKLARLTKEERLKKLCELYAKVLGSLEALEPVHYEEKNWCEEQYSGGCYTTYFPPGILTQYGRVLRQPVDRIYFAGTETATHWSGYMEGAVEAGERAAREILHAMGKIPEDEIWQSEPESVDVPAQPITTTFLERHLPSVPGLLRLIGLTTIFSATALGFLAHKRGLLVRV
Method: (§1) IC50 values for the inhibition of MAO were determined by using the recombinant human MAO-A and MAO-B enzymes (Sigma-Aldrich). Enzyme reactions were performed at a final volume of 200 µL in white 96-well microplates (Eppendorf), with the reaction solvent consisting of potassium phosphate buffer (100 mM, pH 7.4, adjusted to isotonicity with KCl). The reactions contained the nonselective MAO substrate, kynuramine (50 μM), and the test inhibitors at 0.003–100 µM. The test compounds were initially dissolved in DMSO (100%), and after addition to the reactions yielded a concentration of 4% DMSO. Control reactions were included, which contained substrate and 4% DMSO but no test inhibitor. The MAO reactions were started by adding MAO-A (0.0075 mg protein/mL) or MAO-B (0.015 mg protein/mL), and were subsequently incubated for a period of 20 min (37 °C) in a convection oven. A volume of 80 µL 2 N sodium hydroxide was added to the reactions, and the fluorescence intensity of 4-hydroxyquinoline (the end-product of the MAO-catalyzed metabolism of kynuramine) in the reactions was measured at λex 310 and λem 400 nm. To quantify 4-hydroxyquinoline, a calibration curve (linear) ranging from 0.047 to 1.56 μM, was employed. […] These measurements were carried out in triplicate and the IC50 values are presented as the mean ± standard deviation (SD)[18].
(§2) The formation of the dihydropyridinium species (MMDP^+) as a MAO-catalyzed oxidation product of MMTP was monitored at 420 nm. […] Based on this, the IC50 values were determined using kynuramine as a nonselective substrate. The rate of oxidation of kynuramine by MAO was monitored by measuring the fluorescence of the oxidation product, 4-hydroxyquinoline (λex= 310 nm; λem= 400 nm).

MAO-B mRNA expression = MAO-B mRNA expression in H4IIE cells (qRT-PCR); type: cell-based, rat; details: 70 µM
Method: (§3) Rat hepatoma (H4IIE) cells were purchased from American Type Culture Collection (ATCC). H4IIE cells are from rat liver, and contain both MAO-A and MAO-B in approximately equal levels. Cells were cultured in Eagle’s minimum essential medium (EMEM) supplemented with 10% fetal bovine serum (FBS) and 1% streptomycin/penicillin at 37 °C in a 5% CO2 humidified incubator. Cells were plated at a cell density of 3.0 × 10^5 cells in each well of six well plates. Upon 80% confluence, the cells were washed with phosphate buffered saline (PBS) and the media were changed to HBSS supplemented with 10 mM HEPES and 5 mM D-glucose, pH 7.4. These media also contained calcium chloride (1.26 mM) and magnesium chloride (0.5 mM). Cells were then treated with tolcapone (1 0^−6 M), a catechol-O-methyltransferase (COMT) inhibitor to protect dopamine from enzymatic degradation, 20 min prior to starting the experiment. The cells were treated with the negative vehicle control (1% DMSO) or 70 µM of the MAO-B inhibitors (compounds 12, 14, 16, and 17) with the DMSO concentration also being 1%. The cells were subsequently treated with L-DOPA (50 µM). To measure dopamine release and MAO-B gene expression, both the cells and media were collected at 0, 30, 60, and 120 min after treatment. Dopamine level was measured in the supernatant aspirated from the cells by using high performance liquid chromatography (HPLC), while the cells were lysed with trizol for RNA extraction and subsequent gene expression studies.
Total RNA was isolated using the Trizol agent (Invitrogen). One μg of RNA from each sample was reverse transcribed to cDNA using the M-MLV reverse transcriptase kit, according to the manufacturer’s instruction (Promega). PowerUp SYBR green master mix (Life technologies) was used for quantitative real-time polymerase chain reaction (qRT-PCR) for analysis of gene expression. The following primers were used (IDTs) MAO-B forward, […]; MAO-B reverse, […]; β-actin forward, […] and β-actin reverse, […]. qRT-PCR was performed in a 384 well plates with the Quant Studio-5 instrument (Applied Biosystems). Samples were carried out in triplicate in a 10 µL reaction volume using the following cycling conditions: UDG activation for one cycle at 50 °C for 2 min, followed by a single cycle at 95 °C for 2 min, then 40 cycles of denaturation at 95 °C for 15 s, and annealing at 60 °C for 1 min. β-actin was used as a loading control and gene expression was calculated using the 2^-ΔΔCT method as described previously.
(§4) One-way ANOVA followed by Dunnett’s test (compared to the vehicle-control) was used to analyze the data obtained for the dopamine concentrations for compounds 12, 14, 16, and 17targeting MAO-B at 0, 30, 60, and 120 min. One-way ANOVA followed by Newman–Keuls multiple comparison tests was used to analyze time-dependent effects of compounds 14 and 17 on the relative mRNA expression (triplicate) of MAO-B enzyme.

[2] = test system: Rat hepatoma (H4IIE) cells; assay: Dopamine assay in H4IIE cells (HPLC with electrochemical detection); type: cell-based; details: 70 µM compound, 50 µM L-DOPA
Method: as §3
Rat hepatoma cells (H4IIE) were treated with 1% DMSO (vehicle-control), compounds 12, 14, 16, or 17 for different time points at a concentration of 70 µM of each compound along with 50uM L-DOPA.
The concentrations of dopamine were detected using a CoulArray electrochemical array detector system as described previously. Briefly, supernatants obtained from cell culture were filtered using 0.22 μm filter. The filtrates were subsequently injected onto a C18 column (3.2 × 150 mm, 3 μm particle size, Thermo Scientific). The mobile phase consisted of a mixture of 54.3 mM sodium phosphate, 0.215 mM octyl sodium sulfate, 0.32 mM citric acid and 11% methanol. Dopamine concentrations were measured with the CoulArray Electrochemical Array Detector. The chromatograms were analyzed using the CoulArray software. A standard calibration curve was determined using different concentrations of an external standard dopamine (SigmaAldrich).
as §4

human MAO-A [3] = biological target: T2, human MAO-A (Homo sapiens, UniProt P21397); assay: IC50 determination for MAO-A inhibition (kynuramine, fluorescence); type: biochemical; details: recombinant hMAO-A, kynuramine 50 μM, mean ± SD (triplicate)
T2 construct: purchased Sigma-Aldrich
T2 sequence (P21397 1-527): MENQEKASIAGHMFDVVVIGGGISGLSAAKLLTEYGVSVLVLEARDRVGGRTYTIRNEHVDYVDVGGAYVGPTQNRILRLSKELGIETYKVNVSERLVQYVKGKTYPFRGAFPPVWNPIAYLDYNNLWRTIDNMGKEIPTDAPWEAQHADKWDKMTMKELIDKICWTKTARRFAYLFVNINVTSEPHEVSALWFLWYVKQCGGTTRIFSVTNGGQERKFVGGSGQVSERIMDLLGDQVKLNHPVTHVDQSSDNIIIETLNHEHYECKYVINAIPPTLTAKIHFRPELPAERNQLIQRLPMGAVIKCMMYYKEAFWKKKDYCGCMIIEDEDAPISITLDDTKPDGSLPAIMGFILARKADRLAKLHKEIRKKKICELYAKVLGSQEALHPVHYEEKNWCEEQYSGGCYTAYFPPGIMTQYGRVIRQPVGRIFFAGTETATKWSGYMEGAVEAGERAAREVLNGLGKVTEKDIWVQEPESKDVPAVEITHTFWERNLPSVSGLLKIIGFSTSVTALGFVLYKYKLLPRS
Method: as §1, §2

human MAO-A [4] = biological target: T2, human MAO-A; assay: Reversibility of MAO-A inhibition by dialysis; type: biochemical; details: for Reversibility of MAO-A inhibition: dialysis 24 h, inhibitor at 4 × IC50
Method: (§5) The reversibility of inhibition of MAO by compound 16 was investigated by dialysis. Dialysis cassettes (Slide-A-Lyzer®; Thermo Scientific) with a volume of 0.5–3 mL and a molecular weight cutoff of 10,000 were used for the dialysis. […] The volume of these mixtures was 0.8 mL, and contained 4% DMSO. The mixtures were pre-incubated for 15 min at 37 °C and then dialyzed at 4 °C in buffer (80 mL), using the above buffer as dialysis buffer. After 3 and 7 h of dialysis, the dialysis buffer was changed with fresh buffer. […] For comparison, incubations of the MAOs and the test inhibitor were prepared as above but were not dialyzed and kept at 4 °C over the same time period. These experiments were carried out in triplicate, and the remaining enzyme catalytic rates are reported as the mean (± SD).

human MAO-B [5] = biological target: T1, human MAO-B; assay: Reversibility of MAO-B inhibition by dialysis; type: biochemical
Method: as §5

human MAO-A [6] = biological target: T2, human MAO-A; assay: Lineweaver-Burk plots and Ki calculation, MAO-A; type: biochemical
Method: (§6) Sets of six Lineweaver–Burk plots each were prepared to determine if the inhibition of MAO-A and MAO-B by compound 16 is competitive. […] The substrate, kynuramine, was used at concentrations ranging from 15 to 250 μM, whereas the final enzyme concentration was 0.015 mg protein/mL. […] Ki values were estimated by graphing the slopes of the Lineweaver–Burk plots against inhibitor concentration. The intercept of the x-axis is equal to –Ki.

human MAO-B [7] = biological target: T1, human MAO-B; assay: Lineweaver-Burk plots and Ki calculation, MAO-B; type: biochemical
Method: as §6

[8] = 4 × IC50, incubated 15 min, dialyzed 24 h, compared to negative control (100%)
[9] = 4 × IC50, not dialyzed, compared to negative control (100%)
[10] = Lineweaver-Burk plots cross on the y-axis
[11] = slopes of Lineweaver-Burk plots vs inhibitor concentration, kynuramine 15-250 μM

Row | Structure (SMILES) | Selectivity index (human MAO-B [1]) | IC50 (human MAO-B [1]) [µM] | Relative MAO-B mRNA expression vs negative control (MAO-B mRNA expression; 0 min) | Relative MAO-B mRNA expression vs negative control (MAO-B mRNA expression; 30 min) | Relative MAO-B mRNA expression vs negative control (MAO-B mRNA expression; 60 min) | melting point [°C] | Dopamine concentration vs vehicle-control ([2]; 30 min) | Dopamine concentration vs vehicle-control ([2]; 60 min) | Dopamine concentration vs vehicle-control ([2]; 120 min) | IC50 (human MAO-A [3]) [µM] | Reversibility of MAO-A inhibition (human MAO-A [4]) | other results
1 | O=C(/C=C/c1ccc(F)cc1)c1ccc2c(c1)OCO2 [Compound 14, (E)-1-(benzo[d][1,3]dioxol-5-yl)-3–(4-fluorophenyl)prop-2-en-1-one] | 11 | 0.043 ± 0.004 | no significant changes | reduced | no significant changes | 126 to 130 | increased | elevation | increase | 0.506 ± 0.052 |  | Relative MAO-B mRNA expression vs negative control (MAO-B mRNA expression; 120 min): decreased; Relative MAO-B mRNA expression vs 0 min time point (MAO-B mRNA expression; 120 min exposure): decreased
2 | C#CCN(C)Cc1ccccc1 [Pargyline, reference compound] |  |  |  |  |  |  |  |  |  |  | dialysis failed to restore catalytic activity | 
3 | O=C(/C=C/c1ccc([N+](=O)[O-])cc1)c1ccc2c(c1)OCO2 [Compound 17, (E)-1-(benzo[d][1,3]dioxol-5-yl)-3–(4-nitrophenyl)prop-2-en-1-one] | 13 | 0.069 ± 0.004 | no significant changes | reduced | no significant changes | 172 to 175 | increased | elevation | increase | 0.927 ± 0.121 |  | Relative MAO-B mRNA expression vs 0 min time point (MAO-B mRNA expression; 30 min exposure): reduced; Relative MAO-B mRNA expression vs 0 min time point (MAO-B mRNA expression; 60 min exposure): reduced
4 | O=C(/C=C/c1ccc(Cl)cc1)c1ccc2c(c1)OCO2 [Compound 16, (E)-1-(benzo[d][1,3]dioxol-5-yl)-3–(4-chlorophenyl)prop-2-en-1-one] | 3.0 | 0.05 ± 0.002 |  |  |  |  |  |  |  | 0.149 ± 0.011 | reversibly inhibits | MAO-B activity after dialysis (human MAO-B [5]; [8]): 105%; MAO-B activity, undialyzed samples (human MAO-B [5]; [9]): 34%; Reversibility of MAO-B inhibition (human MAO-B [5]; dialysis 24 h, inhibitor at 4 × IC50): reversibly inhibits; MAO-A activity after dialysis (human MAO-A [4]; [8]): 103%; MAO-A activity, undialyzed samples (human MAO-A [4]; [9]): 31%; Mode of MAO-A inhibition (human MAO-A [6]; [10]): competitive; Ki (human MAO-A [6]; [11]): 47 nM; Mode of MAO-B inhibition (human MAO-B [7]; [10]): competitive; Ki (human MAO-B [7]; [11]): 20 nM
